Laboratory results: patent publication US20050261174A1, “Insecticidal activity of a cyclic peptide” (priority 2004, published 2005)
Several values for one entry are separate records, joined by “and”; a condition that tells them apart may be missing. Identical values can stand only once. Entries after “also recorded” stand apart in the source; their conditions may differ.

Tests used:
Format in all cases: in vivo
[1] = test system: cotton aphid (Aphis gossypii); assay: Insecticidal test for cotton aphid, foliar spray on infested squash cotyledons; conditions: for % control: 3 days, population reduction versus untreated
Method: To prepare spray solutions, 0.5 mg of test compound was dissolved into 0.5 mL of a 90:10 acetone: water solvent. This 0.5 mL of chemical solution was added to 4.5 mL of water containing 0.025% Tween 20 surfactant to produce a 100 ppm spray solution. Lower concentrations were made by diluting the 100 ppm solution with water containing 0.025% Tween 20.
Squash cotyledons with a single cotyledon leaf were infested with cotton aphid (wingless adult and nymph) 16-20 hours prior to application of spray solution. The solution was sprayed with a hand-held Devilbiss sprayer on both sides of each infested squash cotyledon until runoff. Reference plants (solvent check) were sprayed with 0.025% Tween 20 containing 9% acetone. The plants were allowed to air dry and held for 3 days in a controlled room at 25° C. and 40% RH after which time the test was graded. Grading was by actual count using a dissecting microscope and comparison of test counts to the untreated check. Results are given in Table 2 as percent control based on population reduction versus the untreated.

[2] = test system: cabbage looper (Trichoplusia ni); assay: Cabbage looper dietary test; conditions: for Symptom, 1 day / Symptom, 3 day: early third-instar larvae
Method: (§1) Insecticidal Test for Tobacco Budworm (Heliothis virescens), Beet Armyworm (Spodoptera exigua) and Cabbage Looper (Trichoplusia ni) in Dietary Assays.
(§2) Dietary assays were conducted in 128-well plastic trays. To prepare a 1000 ppm stock solution, 0.5 mg of test compound was dissolved into 0.5 mL of a 90:10 acetone:water solvent. The test solutions of 125 ppm and lower concentrations were made by sequentially diluting the stock solution with a 90:10 acetone: water solvent. A volume of 50 μl of the test solutions was pipetted upon the surface of 1 mL of lepidopteran diet (Southland Multi-Species Lepidopteran Diet) in each well of 128-well plastic trays. The highest application rate using the 125 ppm solution was equivalent to 3.1 μg/cm^2. For beet armyworm and cabbage looper, four wells (4 replications) were used for each treatment on each insect species. For tobacco budworm, eight wells (8 replications) were used for each treatment. A second-instar tobacco budworm, two second-instar beet armyworm or two early third-instar cabbage looper larvae were placed upon the treated diet in each well once the solvent had been air-dried. Trays containing the treated diet and larvae were covered with self-adhesive transparent sheets and held in a growth chamber at 25° C., 50-55% RH, and 16 h light: 8 h dark Observation were conducted 1 and 3 days after treatment and infestation.

[3] = test system: tobacco budworm (Heliothis virescens); assay: Tobacco budworm dietary test; conditions: for Symptom, 1 day / Symptom, 3 day: second-instar larvae
Method: as §1, §2

[4] = test system: beet armyworm (Spodoptera exigua); assay: Beet armyworm topical test
Method: Insecticidal Test for Beet Armyworm (Spodoptera exigua) in Topical Assays.
To prepare topical solutions, 0.5 mg of test compound was dissolved into 0.5 ML of a 90:10 acetone:water solvent. A volume of 1 or 2 μl of the test solutions was topically applied to each of early fourth-instar beet armyworm larvae. Six larvae (6 replications) were used for each treatment. This application rate was equivalent to 1 or 2 μg per larva. Treated larvae were individually placed in wells of 6-well plastic plates and fed an artificial diet. Observations were made at one, two and three days after treatment.

[5] = test system: beet armyworm (Spodoptera exigua); assay: Beet armyworm dietary test; conditions: for Symptom, 1 day / Symptom, 3 day: second-instar larvae
Method: as §1, §2

[6] = test system: green peach aphid (Myzus persicae); assay: Insecticidal test for green peach aphid, foliar spray on infested cabbage seedlings; conditions: for No. of live aphid, average / No. of live aphid, plant 1 / No. of live aphid, plant 2 / No. of live aphid, plant 3 / No. of live aphid, plant 4: graded after three days; for % control: three days, population reduction versus untreated
Method: Insecticidal Test for Green Peach Aphid (Myzus persicae).
Cabbage seedlings grown in 3-inch pots, with 2-3 small (3-5 cm) true leaves, were used as test substrate. The seedlings were infested with green peach aphids (wingless adult and nymph) 2-3 days prior to chemical application. Four seedlings were used for each treatment. To prepare spray solutions, 0.5 mg of test compound was dissolved into 0.5 mL of a 90:10 acetone:water solvent. This 0.5 mL of chemical solution was added to 4.5 mL of water containing 0.025% Tween 20 surfactant to produce a 100 ppm spray solution. Lower concentrations were made by diluting the 100 ppm solution with water containing 0.025% Tween 20.
A hand-held Devilbiss sprayer was used for spraying a solution to both sides of cabbage leaves until runoff. Reference plants (solvent check) were sprayed with 0.025% Tween 20 containing 9% acetone. Treated plants were held in a holding room for three days at approximately 25° C. and 40% RH prior to grading. Evaluation was conducted by counting the number of live aphids per plant under a microscope. Results are given in Table 3 as percent control based on population reduction versus the untreated.

[7] = 4 PPM spray, graded after 3 days
[8] = 20 PPM spray, graded after 3 days
[9] = 100 PPM spray, graded after 3 days
[10] = 1.95 PPM (0.049 ug/cm2) on diet

C/C=C1\NC(=O)C2CSSCC/C=C/C(CC(=O)NC(C(C)C)C(=O)N2)OC(=O)C(C(C)C)NC1=O (centres unmarked) [compound of formula (I), FR901228]
% control ([1]; 4 PPM spray): 87% | No. of live aphid, average [1, 7]: 27 | No. of live aphid, plant 1 [1, 7]: 27 | No. of live aphid, plant 2 [1, 7]: 40 | No. of live aphid, plant 3 [1, 7]: 64 | No. of live aphid, plant 4 [1, 7]: 83 | % control ([1]; 20 PPM spray): 95.2% | No. of live aphid, average [1, 8]: 10 | No. of live aphid, plant 1 [1, 8]: 16 | No. of live aphid, plant 2 [1, 8]: 4 | % control ([1]; 100 PPM spray): 100% | No. of live aphid, average [1, 9]: 0 | No. of live aphid, plant 1 [1, 9]: 0 | No. of live aphid, plant 2 [1, 9]: 0 | % Dead, 1 day [2, 10]: 0% | % Dead, 3 day [2, 10]: 0% | Symptom, 1 day [2, 10]: none | Symptom, 3 day [2, 10]: none | % Dead, 1 day ([2]; 7.8 PPM (0.195 ug/cm2) on diet): 0% | % Dead, 3 day ([2]; 7.8 PPM (0.195 ug/cm2) on diet): 0% | Symptom, 1 day ([2]; 7.8 PPM (0.195 ug/cm2) on diet): none | Symptom, 3 day ([2]; 7.8 PPM (0.195 ug/cm2) on diet): 60% size of UTC | % Dead, 1 day ([2]; 31.3 PPM (0.78 ug/cm2) on diet): 0% | % Dead, 3 day ([2]; 31.3 PPM (0.78 ug/cm2) on diet): 0% | Symptom, 1 day ([2]; 31.3 PPM (0.78 ug/cm2) on diet): none | Symptom, 3 day ([2]; 31.3 PPM (0.78 ug/cm2) on diet): 40% size of UTC | % Dead, 1 day ([2]; 125 PPM (3.1 ug/cm2) on diet): 25% | % Dead, 3 day ([2]; 125 PPM (3.1 ug/cm2) on diet): 50% | % Dead, 1 day ([3]; 1 PPM (0.025 ug/cm2) on diet): 0% | % Dead, 3 day ([3]; 1 PPM (0.025 ug/cm2) on diet): 0% | Symptom, 1 day ([3]; 1 PPM (0.025 ug/cm2) on diet): none | % Dead, 1 day ([3]; 5 PPM (0.13 ug/cm2) on diet): 0% | % Dead, 3 day ([3]; 5 PPM (0.13 ug/cm2) on diet): 0% | Symptom, 1 day ([3]; 5 PPM (0.13 ug/cm2) on diet): 80% size of UTC | Symptom, 3 day ([3]; 5 PPM (0.13 ug/cm2) on diet): 60% size of UTC | % Dead, 1 day ([3]; 25 PPM (0.63 ug/cm2) on diet): 0% | % Dead, 3 day ([3]; 25 PPM (0.63 ug/cm2) on diet): 0% | Symptom, 1 day ([3]; 25 PPM (0.63 ug/cm2) on diet): 60% size of UTC | Symptom, 3 day ([3]; 25 PPM (0.63 ug/cm2) on diet): 40% size of UTC | % Dead, 1 day ([3]; 125 PPM (3.1 ug/cm2) on diet): 0% | % Dead, 3 day ([3]; 125 PPM (3.1 ug/cm2) on diet): 0% | Symptom, 1 day ([4]; 1 ug/larva topical, early fourth-instar larvae, 1 day): 2 dying w/duiresis, and 2 unable to right, and 2 small, 1 OK | Symptom, 3 day ([4]; 2 ug/larva topical, early fourth-instar larvae, 3 day): all dead; also recorded: w/duiresis | % Dead, 1 day [5, 10]: 0% | % Dead, 3 day [5, 10]: 0% | Symptom, 1 day [5, 10]: 90% size of UTC | Symptom, 3 day [5, 10]: 30% size of UTC | % Dead, 1 day ([5]; 7.8 PPM (0.195 ug/cm2) on diet): 0% | % Dead, 3 day ([5]; 7.8 PPM (0.195 ug/cm2) on diet): 0% | Symptom, 1 day ([5]; 7.8 PPM (0.195 ug/cm2) on diet): 70% size of UTC | Symptom, 3 day ([5]; 7.8 PPM (0.195 ug/cm2) on diet): 15% size of UTC | % Dead, 1 day ([5]; 31.3 PPM (0.78 ug/cm2) on diet): 0% | % Dead, 3 day ([5]; 31.3 PPM (0.78 ug/cm2) on diet): 0% | Symptom, 1 day ([5]; 31.3 PPM (0.78 ug/cm2) on diet): 50% size of UTC | Symptom, 3 day ([5]; 31.3 PPM (0.78 ug/cm2) on diet): 10% size of UTC | % Dead, 1 day ([5]; 125 PPM (3.1 ug/cm2) on diet): 0% | % Dead, 3 day ([5]; 125 PPM (3.1 ug/cm2) on diet): 100% | Symptom, 1 day ([5]; 125 PPM (3.1 ug/cm2) on diet): 30% size of UTC | Symptom, 3 day ([5]; 125 PPM (3.1 ug/cm2) on diet): all dead | No. of live aphid, average ([6]; 20 PPM spray): 55 | No. of live aphid, plant 1 ([6]; 20 PPM spray): 47 | No. of live aphid, plant 2 ([6]; 20 PPM spray): 53 | No. of live aphid, plant 3 ([6]; 20 PPM spray): 87 | No. of live aphid, plant 4 ([6]; 20 PPM spray): 32 | % control ([6]; 20 PPM spray): 35.8% | No. of live aphid, average ([6]; 100 PPM spray): 24 | No. of live aphid, plant 1 ([6]; 100 PPM spray): 8 | No. of live aphid, plant 2 ([6]; 100 PPM spray): 31 | No. of live aphid, plant 3 ([6]; 100 PPM spray): 30 | No. of live aphid, plant 4 ([6]; 100 PPM spray): 26 | % control ([6]; 100 PPM spray): 72.1%

C/C=C1\NC(=O)[C@H]2CSSCC/C=C/[C@H](CC(=O)N[C@H](C(C)C)C(=O)N2)OC(=O)[C@H](C(C)C)NC1=O [compound of formula (I), FR901228]
% Mortality, 1 day ([4]; 1 ug/larva topical, 1 day): 0% | % Mortality, 2 day ([4]; 1 ug/larva topical): 17% | % Mortality, 3 day ([4]; 1 ug/larva topical, 3 day): 67% | % Mortality, 1 day ([4]; 2 ug/larva topical, 1 day): 0% | % Mortality, 2 day ([4]; 2 ug/larva topical): 85% | % Mortality, 3 day ([4]; 2 ug/larva topical, 3 day): 100%
